Reference: ChEMBL document CHEMBL3856233, “Identification of (R)-(2-Chloro-3-(trifluoromethyl)phenyl)(1-(5-fluoropyridin-2-yl)-4-methyl-6,7-dihydro-1H-imidazo[4,5-c]pyridin-5(4H)-yl)methanone (JNJ 54166060), a Small Molecule Antagonist of the P2X7 receptor” (J Med Chem, 2016)
≈ marks a conversion by molar mass, not a printed value.

Key:
[1] = Drug metabolism in human liver microsomes assessed as oxidation of imdazopyridine core at 10 uM after 60 mins by LC/MS/MS analysis; format: ADME; conditions: 1 h
P2X purinoceptor 7 = target: T1, P2X purinoceptor 7 (Mus musculus, UniProt Q9Z1M0); assay: Antagonist activity at recombinant mouse P2X7 receptor expressed in human 1321N1 cells assessed as inhibition of Bz-ATP-induced Ca2+ flux preincubated for 30 mins followed by agonist addition measured after 180 sec by calcium-4 dye based FLIPR assay; format: cell-based
T1 sequence (Q9Z1M0 whole entry): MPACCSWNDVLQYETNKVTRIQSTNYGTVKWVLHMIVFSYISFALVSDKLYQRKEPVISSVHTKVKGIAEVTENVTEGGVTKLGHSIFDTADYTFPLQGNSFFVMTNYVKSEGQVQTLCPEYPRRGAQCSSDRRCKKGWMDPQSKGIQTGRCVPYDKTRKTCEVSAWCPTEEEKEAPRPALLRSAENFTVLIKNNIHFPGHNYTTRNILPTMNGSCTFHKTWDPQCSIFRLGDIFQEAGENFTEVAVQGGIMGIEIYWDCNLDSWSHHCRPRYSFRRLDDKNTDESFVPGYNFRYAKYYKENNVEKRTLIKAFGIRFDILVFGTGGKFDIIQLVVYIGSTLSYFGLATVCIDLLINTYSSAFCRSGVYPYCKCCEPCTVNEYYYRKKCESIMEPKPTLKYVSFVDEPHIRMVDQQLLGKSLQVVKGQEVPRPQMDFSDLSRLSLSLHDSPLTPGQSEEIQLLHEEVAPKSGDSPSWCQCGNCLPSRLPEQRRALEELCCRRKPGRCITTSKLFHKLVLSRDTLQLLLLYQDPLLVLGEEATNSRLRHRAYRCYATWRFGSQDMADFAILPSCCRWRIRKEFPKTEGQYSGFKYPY

[2] = Drug metabolism in human liver microsomes assessed as oxidation of fluoropyridine substituent at 10 uM after 60 mins by LC/MS/MS analysis; format: ADME; conditions: 1 h
Rattus norvegicus [3] = assay: Ex vivo receptor occupancy at P2X7 receptor in po dosed rat brain hippocampal tissue assessed as plasma concentration required for [3H]-(S)-7-(2-chloro-3-(trifluoromethyl)benzyl)-6-methyl-3-(pyrazin-2-yl)-6,7-dihydro-[1,2,4]triazolo[4,3-a]pyrazin-8(5H)-one displacement after 30 mins; format: functional, organism-based
Rattus norvegicus [4] = assay: Ex vivo receptor occupancy at P2X7 receptor in po dosed rat brain hippocampal section assessed as displacement of [3H]-(S)-7-(2-chloro-3-(trifluoromethyl)benzyl)-6-methyl-3-(pyrazin-2-yl)-6,7-dihydro-[1,2,4]triazolo[4,3-a]pyrazin-8(5H)-one after 30 mins; format: functional
Rattus norvegicus [5] = assay: Ex vivo receptor occupancy at P2X7 receptor in po dosed rat brain hippocampal tissue assessed as brain concentration required for [3H]-(S)-7-(2-chloro-3-(trifluoromethyl)benzyl)-6-methyl-3-(pyrazin-2-yl)-6,7-dihydro-[1,2,4]triazolo[4,3-a]pyrazin-8(5H)-one displacement after 30 mins; format: functional, organism-based
[6] = Clearance in cynomolgus monkey at 1 mg/kg, iv after 0.033 to 24 hrs by LC/MS/MS analysis; format: ADME, organism-based, Macaca fascicularis; conditions: in vivo
[7] = Volume of distribution at steady state in Sprague-Dawley rat at 1 mg/kg, iv after 0.033 to 24 hrs by LC/MS/MS analysis; format: ADME, organism-based; conditions: in vivo, read-out: Vdss
[8] = Volume of distribution at steady state in Beagle dog at 1 mg/kg, iv after 0.033 to 24 hrs by LC/MS/MS analysis; format: ADME, organism-based, Canis lupus familiaris; conditions: in vivo, read-out: Vdss
[9] = Half life in Sprague-Dawley rat at 1 mg/kg, iv by LC/MS/MS analysis; format: ADME, organism-based; conditions: in vivo
[10] = Half life in cynomolgus monkey at 1 mg/kg, iv by LC/MS/MS analysis; format: ADME, organism-based, Macaca fascicularis; conditions: in vivo
[11] = Cmax in Sprague-Dawley rat at 5 mg/kg, po after 0.033 to 24 hrs by LC/MS/MS analysis; format: ADME, organism-based; set-up: dose 5 mg/kg, route oral; conditions: in vivo
[12] = Tmax in Sprague-Dawley rat at 5 mg/kg, po after 0.033 to 24 hrs by LC/MS/MS analysis; format: ADME, organism-based; conditions: in vivo
[13] = Tmax in Beagle dog at 5 mg/kg, po after 0.033 to 24 hrs by LC/MS/MS analysis; format: ADME, organism-based, Canis lupus familiaris; conditions: in vivo
[14] = Tmax in cynomolgus monkey at 5 mg/kg, po after 0.033 to 24 hrs by LC/MS/MS analysis; format: ADME, organism-based, Macaca fascicularis; conditions: in vivo
[15] = Oral bioavailability in Sprague-Dawley rat at 5 mg/kg after 0.033 to 24 hrs by LC/MS/MS analysis; format: ADME, organism-based; conditions: in vivo
[16] = Oral bioavailability in cynomolgus monkey at 5 mg/kg after 0.033 to 24 hrs by LC/MS/MS analysis; format: ADME, organism-based, Macaca fascicularis; conditions: in vivo
[17] = Tmax in rat at 1000 mg/kg, po; format: ADME, organism-based; conditions: in vivo
Rattus norvegicus [18] = assay: Toxicity in rat assessed as CNS side effects up to 1000 mg/kg, po administered on day 1 followed by necropsy on day 2; format: organism-based; conditions: in vivo
Rattus norvegicus [19] = assay: Toxicity in rat assessed as central lobular hepatocellular degeneration at 250 mg/kg/day, po administered for 4 days followed by necropsy on day 5 post treatment by histological analysis; format: organism-based; conditions: in vivo, 96 h
CYP3A4 [20] = target: T2, CYP3A4 (Homo sapiens, UniProt P08684); assay: Inhibition of CYP3A4 in human liver microsomes using midazolam as substrate assessed as reduction in 1-OH-midazolam formation at 0.313 uM by LC/MS/MS analysis; format: ADME; conditions: probe midazolam
CYP3A4 [21] = target: T2, CYP3A4; assay: Inhibition of CYP3A4 in human liver microsomes using midazolam as substrate assessed as reduction in 1-OH-midazolam formation at 1.25 uM by LC/MS/MS analysis; format: ADME; conditions: probe midazolam
CYP3A4 [22] = target: T2, CYP3A4; assay: Inhibition of CYP3A4 in human liver microsomes using midazolam as substrate assessed as reduction in 1-OH-midazolam formation at 2.5 uM by LC/MS/MS analysis; format: ADME; conditions: probe midazolam
CYP3A4 [23] = target: T2, CYP3A4; assay: Inhibition of CYP3A4 in human liver microsomes using midazolam as substrate assessed as reduction in 1-OH-midazolam formation at 10 uM by LC/MS/MS analysis; format: ADME; conditions: probe midazolam
CYP3A4 [24] = target: T2, CYP3A4; assay: Inhibition of CYP3A4 in human liver microsomes using midazolam as substrate assessed as reduction in 4-OH-midazolam formation at 0.313 uM by LC/MS/MS analysis; format: ADME; conditions: probe midazolam
[25] = Permeability from basolateral to apical side in human Caco2 cells at 10 uM after […] by LC/MS/MS analysis; format: ADME, cell-based; conditions: Caco-2, read-out: permeability
Rattus norvegicus [26] = assay: Toxicity in rat assessed as CNS side effects up to 250 mg/kg, po for 4 days followed by necropsy on day 5 post treatment; format: organism-based; conditions: in vivo, 96 h
Rattus norvegicus [27] = assay: Toxicity in rat assessed as induction of central lobular hepatocellular necrosis at 250 mg/kg/day, po administered for 4 days followed by necropsy on day 5 post treatment by histological analysis; format: organism-based; conditions: in vivo, 96 h
[28] = Brain tissue binding in rat brain homogenate at 5 uM after 5 hrs by LC/MS/MS analysis; conditions: in vitro
[29] = Solubility of the compound in phosphate buffer at pH 7 at room temperature after 3 days

T2 sequence (P08684 whole entry): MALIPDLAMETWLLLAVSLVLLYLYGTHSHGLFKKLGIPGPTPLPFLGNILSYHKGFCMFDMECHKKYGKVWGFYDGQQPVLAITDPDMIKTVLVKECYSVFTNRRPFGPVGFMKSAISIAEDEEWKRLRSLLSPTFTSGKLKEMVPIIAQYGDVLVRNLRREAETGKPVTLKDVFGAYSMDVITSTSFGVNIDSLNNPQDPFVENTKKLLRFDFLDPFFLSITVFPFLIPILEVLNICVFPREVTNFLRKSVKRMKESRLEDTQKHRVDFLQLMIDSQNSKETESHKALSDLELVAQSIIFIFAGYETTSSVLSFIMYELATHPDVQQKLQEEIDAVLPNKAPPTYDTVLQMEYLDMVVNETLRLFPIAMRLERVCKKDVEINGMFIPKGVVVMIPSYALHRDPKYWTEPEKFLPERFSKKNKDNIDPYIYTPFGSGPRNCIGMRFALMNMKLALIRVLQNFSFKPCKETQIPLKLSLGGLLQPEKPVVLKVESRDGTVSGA

- Drug metabolism [1]: Metabolite_Detected
- IC50 (P2X purinoceptor 7): 72 nM
- Drug metabolism [2]: Metabolite_Notdetected
- EC50 (Rattus norvegicus [3]; Rattus norvegicus, P2X7, Brain/Plasma): 0.125 µg/mL (≈ 0.285 µM)
- inhibition (Rattus norvegicus [4]): Dose-dependent effect
- EC50 (Rattus norvegicus [5]; Rattus norvegicus, P2X7): 0.362 µg/mL (≈ 0.825 µM)
- clearance [6]: 14 mL/min/kg
- Vd [7]: 3.8 L/kg
- Vd [8]: 3.6 L/kg
- half-life [9]: 1.7 h
- half-life [10]: 4.2 h
- Cmax [11]: 375 ng/mL
- Tmax [12]: 1 h
- Tmax [13]: 0.5 h
- Tmax [14]: 2.3 h
- bioavailability [15]: 55%
- bioavailability [16]: 54%
- Tmax [17]: 24 h
- inhibition at 0.313 µM (CYP3A4 [20]): 20%
- inhibition at 1.25 µM (CYP3A4 [21]): 41%
- inhibition at 2.5 µM (CYP3A4 [22]): 52%
- inhibition at 10 µM (CYP3A4 [23]): 74%
- inhibition at 0.313 µM (CYP3A4 [24]): 0.1%
- Papp B→A at 10 µM [25]: 35 ×10⁻⁶ cm/s
- Brain tissue binding [28]: 98.5%
- solubility at 72 h [29]: 29 µM (≈ 12.7 µg/mL)
Compound: C[C@@H]1c2ncn(-c3ccc(F)cn3)c2CCN1C(=O)c1cccc(C(F)(F)F)c1Cl
- fIC50 (Rattus norvegicus [3]): 15 nM
- ED50 (Rattus norvegicus [4]): 2.3 mg/kg
- fIC50 (Rattus norvegicus [5]): 12 nM
- Activity (Rattus norvegicus [18]): Non-Toxic
- Activity (Rattus norvegicus [19]): Toxic
- Activity (Rattus norvegicus [26]): Non-Toxic
- Activity (Rattus norvegicus [27]): Toxic
